Reference: patent publication US12319675B2 (Artax Biopharma Inc., priority 2018, dated 2025)

Key:
[1] = Microsomal stability assay, mouse; type: in vitro ADME; details: mouse microsomes, read-out: Microsomal Stability (T1/2 min) Mouse
Method: (§1) Microsomal stability assays were performed using mouse, rat, and human […] according to methods well-known in the art. Microsomal stability results are shown in Table 2 for selected compounds of the invention. The compound numbers correspond to the compound numbers in Table 1. […] “N/A” indicates not assayed.

[2] = Microsomal stability assay, rat; type: in vitro ADME; details: rat microsomes, read-out: Microsomal Stability (T1/2 min) Rat
Method: as §1

[3] = Microsomal stability assay, human; type: in vitro ADME; details: human microsomes, read-out: Microsomal Stability (T1/2 min) Human
Method: as §1

[4] = target: Nck SH3 domain interaction with the proline rich sequence of TCR subunit CD3ε (Homo sapiens, UniProt P16333); test: Competitive binding, biosensor with Interferometric Optical Detection Method (IODM); details: ratio of 1:1 between Nck SH3 domain and inhibitors; biotinylated CD3ε peptide on sensing surface
Method: Inhibition of Nck SH3 domain interaction with the proline rich sequence of TCR subunit CD3ε was measured by optical read-out of a biosensor based on the Interferometric Optical Detection Method (IODM), using established methods (WO 2010/026269; WO 2014/020159; Laguna, M. et al., Sensors, 2015, 15(8):19819-29; and Holgado, M. et al., Sensors, 2014, 14(2): 3675-89).
Briefly, a Biophotonic Cell (BICELL) based on Fabry-Perot interferometers was used as the photonic transducer. The BICELL was fabricated using SU8 in cyclopentanone according to known methods (e.g., Laguna, M. F. et al., Sensors, 2014, 14(4): 6695-6700). Cured film was then treated with 95% sulfuric acid for 10 seconds. Streptavidin was then immobilized on the sensing surface in phosphate buffered saline (PBS; pH 7.4) over 20 min at 37° C. followed by blocking of the surface with 5% skin milk in PBS (pH 7.4). Biotinylated CD3ε peptide (SEQ ID NO: 001) in PBS (pH 7.4) was incubated with the streptavidin coated film to biofunctionalize the sensing surface (20 min at 37° C.).
Competitive binding assays were performed to determine the affinity reaction of inhibitors. The screening was carried out using a ratio of 1:1 between Nck SH3 domain and inhibitors. The optical readout of the biosensor was accomplished by a Fourier transform visible-infrared (FT-VIS-IR) spectrometer. Competitive binding results are shown in Table 3 for selected compounds of the invention. The compound numbers correspond to the compound numbers in Table 1. Compounds having a designation of “A” provide an Increased Relative Optical Power (ΔIROP) of less than or equal to thirty percent (≤30%); compounds having a designation of “B” provide a ΔIROP of between thirty and fifty percent (>30% to ≤50%); compounds having a designation of “C” provide an ΔIROP of between fifty and seventy percent (>50% to ≤70%); and compounds having a designation of “D” provide a ΔIROP of greater than seventy percent (>70%).

[5] = tested on: CD3 mediated phosphorylation of ZAP70 in Jurkat cells; test: CD3 mediated phosphorylation of ZAP70 in Jurkat cells (HTRF); type: cell-based; details: Homo sapiens, Jurkat cells stimulated with 20 μg/mL anti-CD3 antibody; for Emax: maximum inhibition, read-out: pZAP70 Inhibition - Maximum Percent Inhibition (% Inhibition); for IC50: read-out: pZAP70 Inhibition IC50
Method: Inhibition of CD3 mediated phosphorylation of ZAP70 in Jurkat cells was measured by a cellular based Homogeneous Time-Resolved Fluorescence (HTRF) assay utilizing a Total ZAP-70 HTRF kit.
Briefly, Jurkat cells (˜1.3×10^6 cells/mL) were harvested on the day of experimentation. Cells were washed with PBS and resuspended in Assay Buffer (RPMI 1640 media plus 10% FBS) and counted.
Jurkat cells were seeded in Assay media at a total volume of 4 μL/well (40K cells/well) in a 384-low volume white flat bottom plate. The cells were then incubated at 37° C./5% CO2 for 30 minutes. The cells were then treated in duplicate with test compounds (3×) and reference compounds (3×) in a total volume of 4 μL, respectively. A compound dilution scheme is exemplified in FIG. 1.
The plate was then transferred to an incubator maintained at 37° C./5% CO2 for 2 minutes. Following incubation, cells were stimulated with 20 μg/mL of anti-CD3 antibody (1 mg/mL stock) and assay media was used to bring the total well volume 4 μL/well. The plate was then transferred to the incubator maintained at 37° C./5% CO2 for 2.5 minutes. Following incubation, 4 μL of lysis buffer (4×) provided in the kit was added to each well. The plate was then incubated at RT for 1 hour with gentle shaking. Following incubation, 4 μL of detection mix was added to each well and the plate was sealed with a plate sealer and left overnight at RT in the dark.
The Envision reader was set-up for Eu^3+ cryptate and fluorescence emission was read at two different wavelengths (620 nm and 665 nm). • Excitation filter: UV2(TRF) 320 nm • Emission filter: 665 nm • 2nd Emission filter: Europium 615 nm • Measurement height (mm): 6.5 • Excitation light (%): 100 • Delay (μs): 50 • Window time (μs): 400 • Time between flashes (μs): 2000 • Number of flashes: 100 • Number of flashes for 2nd detector: 100
The data is represented by the signal form the two wavelengths:
The ratio of the signal is calculated for each individual well:
The data was plotted using Graph Pad Prism. The significance between untreated vs. treated groups was assessed by One-way ANOVA and Bonferroni posttest comparing all columns in the graph.
ZAP70 IC50 results are shown in Table 6 for select compounds of the invention. The compound numbers correspond to the compound numbers in Table 1. […] “ND” indicates not determined.
ZAP70 percent maximum inhibition results are shown in Table 7 for select compounds of the invention. The compound numbers correspond to the compound numbers in Table 1.

For CC(C)Oc1ccc2c(c1)C(c1ccc(F)cc1)=C(CN1CCCC1)CO2 [Compound I-14], the half-life [1] was less than 10 min, the half-life [2] was less than 10 min and the half-life [3] was 10 to 30 min. For the same molecule, the “ΔIROP (Increased Relative Optical Power)” value [4] was “C (an ΔIROP of between fifty and seventy percent (>50% to ≤70%))”, the Emax [5] was 30 to 40% and the IC50 [5] was less than 1 nM.

With CC(C)c1ccc2c(c1)C(c1ccc(F)cc1)=C(CN1CCCC1)CO2 [Compound I-15] the half-life [1] was less than 10 min, the half-life [2] was less than 10 min and the half-life [3] was 10 to 30 min. The “ΔIROP (Increased Relative Optical Power)” value [4] was “C (an ΔIROP of between fifty and seventy percent (>50% to ≤70%))”, the Emax [5] was 30 to 40% and the IC50 [5] was less than 1 nM.

Molecule COc1ccc2c(c1)C(c1ccc(Cl)cc1)=C(CN1CCCC1)CO2 [Compound I-19] has a half-life [1] of less than 10 min, a half-life [2] of less than 10 min and a half-life [3] of 10 to 30 min. For the same molecule, the “ΔIROP (Increased Relative Optical Power)” value [4] was “C (an ΔIROP of between fifty and seventy percent (>50% to ≤70%))”, the Emax [5] was greater than 50% and the IC50 [5] was 1 to 10 nM.

Work on COc1ccc2c(c1)C(c1ccc(C(F)(F)F)cc1)=C(CN1CCCC1)CO2 [Compound I-20] yielded a half-life [1] of less than 10 min, a half-life [2] of less than 10 min and a half-life [3] of 10 to 30 min. For the same molecule, the “ΔIROP (Increased Relative Optical Power)” value [4] was “B (a ΔIROP of between thirty and fifty percent (>30% to ≤50%))”, the Emax [5] was 40 to 50% and the IC50 [5] was less than 1 nM.

For COc1ccc2c(c1)C(c1cccc(F)c1)=C(CN1CCCC1)CO2 [Compound I-21], the half-life [1] was less than 10 min, the half-life [2] was less than 10 min and the half-life [3] was 10 to 30 min. For the same molecule, the “ΔIROP (Increased Relative Optical Power)” value [4] was “C (an ΔIROP of between fifty and seventy percent (>50% to ≤70%))”, the Emax [5] was 40 to 50% and the IC50 [5] was 1 to 10 nM.

Molecule COc1ccc2c(c1)C(c1ccc(C#N)cc1)=C(CN1CCCC1)CO2 [Compound I-22] has a half-life [1] of less than 10 min, a half-life [2] of less than 10 min and a half-life [3] of 10 to 30 min. The “ΔIROP (Increased Relative Optical Power)” value [4] was “B (a ΔIROP of between thirty and fifty percent (>30% to ≤50%))” and the Emax [5] was no more than 30%.

CC(C)Oc1ccc2c(c1)C(c1ccc(F)cc1)=C(C(=O)N1CCN(C)CC1)CO2 [Compound I-23] showed a half-life [1] of less than 10 min, a half-life [2] of 10 to 30 min and a half-life [3] of 10 to 30 min. For the same molecule, the “ΔIROP (Increased Relative Optical Power)” value [4] was “A (an Increased Relative Optical Power (ΔIROP) of less than or equal to thirty percent (≤30%))”, the Emax [5] was greater than 50% and the IC50 [5] was 1 to 10 nM.

CC(C)c1ccc2c(c1)C(c1ccc(F)cc1)=C(C(=O)N1CCN(C)CC1)CO2 [Compound I-24] gave a half-life [1] of less than 10 min, a half-life [2] of less than 10 min and a half-life [3] of less than 10 min. For the same molecule, the “ΔIROP (Increased Relative Optical Power)” value [4] was “C (an ΔIROP of between fifty and seventy percent (>50% to ≤70%))”, the Emax [5] was 40 to 50% and the IC50 [5] was 1 to 10 nM.

For COc1ccc2c(c1)C(c1ccc(C#N)cc1)=C(C(=O)N1CCN(C)CC1)CO2 [Compound I-30], the half-life [1] was less than 10 min, the half-life [2] was 10 to 30 min and the half-life [3] was greater than 30 min. For the same molecule, the “ΔIROP (Increased Relative Optical Power)” value [4] was “C (an ΔIROP of between fifty and seventy percent (>50% to ≤70%))”, the Emax [5] was 40 to 50% and the IC50 [5] was 1 to 10 nM.

Molecule O=C(O)CCOc1ccc2c(c1)C(c1ccc(F)cc1)=C(CN1CCCC1)CO2 [Compound I-33, 3-((4-(4-fluorophenyl)-3-(pyrrolidin-1-ylmethyl)-2H-chromen-6-yl)oxy)propanoic Acid] has a half-life [1] greater than 30 min, a half-life [2] greater than 30 min and a half-life [3] greater than 30 min. For the same molecule, the “ΔIROP (Increased Relative Optical Power)” value [4] was “A (an Increased Relative Optical Power (ΔIROP) of less than or equal to thirty percent (≤30%))”, the Emax [5] was greater than 50% and the IC50 [5] was 1 to 10 nM.

Work on O=C(O)CCOc1ccc2c(c1)C(c1ccc(F)cc1)=C(C(=O)N1CCCC1)CO2 [Compound I-40, 3-((4-(4-fluorophenyl)-3-(pyrrolidine-1-carbonyl)-2H-chromen-6-yl)oxy)propanoic acid] yielded a half-life [1] greater than 30 min, a half-life [2] greater than 30 min and a half-life [3] greater than 30 min. The “ΔIROP (Increased Relative Optical Power)” value [4] was “D (a ΔIROP of greater than seventy percent (>70%))”, the Emax [5] was 30 to 40% and the IC50 [5] was 1 to 10 nM.

With CN1CCN(C(=O)C2=C(c3ccc(F)cc3)c3ccccc3OC2)CC1 [Compound I-44] the half-life [1] was less than 10 min, the half-life [2] was less than 10 min and the half-life [3] was less than 10 min. The “ΔIROP (Increased Relative Optical Power)” value [4] was “D (a ΔIROP of greater than seventy percent (>70%))”, the Emax [5] was 30 to 40% and the IC50 [5] was 1 to 10 nM.
